Reference: ChEMBL document CHEMBL1153247, “Synthesis and biological evaluation of substituted 2-phenyl-2H-indazole-7-carboxamides as potent poly(ADP-ribose) polymerase (PARP) inhibitors” (Bioorg Med Chem Lett, 2010)
Where “and” joins values, the source holds several entries; their conditions need not be identical. Equal values may be shown once.

Columns and labels:
[1] = test system: HeLa; experiment: Cytotoxicity against human HeLa cells expressing BRCA1 after 7 days by fluorimetric analysis; type: functional; details: 168 h
[2] = test system: HeLa; experiment: Cytotoxicity against human BRCA1 deficient HeLa cells after 7 days by fluorimetric analysis; type: functional, cell-based; details: 168 h
[3] = molecular target: Poly [ADP-ribose] polymerase 1 (Homo sapiens, UniProt P09874); experiment: Inhibition of human PARP1 after 3 hrs using [3H]NAD+ by scintillation proximity assay
[4] = Clearance in rat; type: ADME, organism-based; details: in vivo
[5] = (§1) Oral bioavailability in rat; type: ADME, organism-based; details: in vivo
[6] = Intrinsic clearance in rat microsomes; type: ADME, Microsome
[7] = test system: Rattus norvegicus; experiment: as §1; type: ADME, organism-based; details: in vivo

Poly [ADP-ribose] polymerase 1, sequence (P09874 whole entry): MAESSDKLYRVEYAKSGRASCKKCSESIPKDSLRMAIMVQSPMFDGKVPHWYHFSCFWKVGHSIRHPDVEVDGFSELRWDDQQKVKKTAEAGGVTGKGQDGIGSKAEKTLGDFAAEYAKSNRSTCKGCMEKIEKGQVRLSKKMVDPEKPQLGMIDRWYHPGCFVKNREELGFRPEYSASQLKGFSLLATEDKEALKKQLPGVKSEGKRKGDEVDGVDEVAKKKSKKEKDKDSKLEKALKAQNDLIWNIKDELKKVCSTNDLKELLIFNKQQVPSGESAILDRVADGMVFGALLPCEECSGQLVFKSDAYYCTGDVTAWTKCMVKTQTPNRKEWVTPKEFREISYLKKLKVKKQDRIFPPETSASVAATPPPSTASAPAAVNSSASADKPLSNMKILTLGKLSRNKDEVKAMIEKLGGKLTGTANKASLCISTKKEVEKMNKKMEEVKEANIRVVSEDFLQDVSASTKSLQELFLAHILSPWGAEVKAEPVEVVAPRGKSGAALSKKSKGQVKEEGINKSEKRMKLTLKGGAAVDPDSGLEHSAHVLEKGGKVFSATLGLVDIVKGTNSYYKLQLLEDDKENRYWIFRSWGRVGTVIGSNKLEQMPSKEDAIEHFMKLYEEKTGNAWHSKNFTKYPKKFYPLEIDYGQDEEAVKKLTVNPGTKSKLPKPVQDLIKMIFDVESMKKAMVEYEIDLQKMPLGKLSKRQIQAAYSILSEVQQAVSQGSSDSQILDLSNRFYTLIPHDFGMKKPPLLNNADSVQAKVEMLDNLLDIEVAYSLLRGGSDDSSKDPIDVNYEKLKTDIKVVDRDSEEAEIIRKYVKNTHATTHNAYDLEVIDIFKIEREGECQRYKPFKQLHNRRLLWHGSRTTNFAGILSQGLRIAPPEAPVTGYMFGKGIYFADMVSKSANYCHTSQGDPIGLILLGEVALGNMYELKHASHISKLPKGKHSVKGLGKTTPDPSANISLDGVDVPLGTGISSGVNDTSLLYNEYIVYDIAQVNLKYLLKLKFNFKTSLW

Row | SMILES | IC50 [3] [nM] | clearance [4] [mL/min/kg] | bioavailability [5] [%] | microsomal CLint [6] [µL/min/mg] | F [7] | CC50 [1] [nM] | IC50 [2] [nM]
1 | NC(=O)c1cc(F)cc2cn(-c3ccc(NC(=O)C4CNC4)c(F)c3)nc12 | 4 | – | – | – | – | 650 | 42
2 | CN1CCC(C(=O)Nc2ccc(-n3cc4cc(F)cc(C(N)=O)c4n3)cc2)CC1 | 16 | 26 | 66 | – | – | 2700 | 520
3 | NC(=O)c1cccc2cn(-c3ccc(C(=O)NCCN4CCCC4)cc3)nc12 | 20 | – | – | – | – | 8000 | 3300
4 | NC(=O)c1cccc2cn(-c3ccc(NC(=O)CN4CCCCC4)cc3)nc12 | 20 | – | – | – | – | 3000 | 1400
5 | NC(=O)c1cccc2cn(-c3ccc(NC(=O)CN4CCOCC4)cc3)nc12 | 30 | – | – | – | – | > 6000 | 5000
6 | CN1CCCC(C(=O)NCc2ccc(-n3cc4cccc(C(N)=O)c4n3)cc2)C1 (stereo not drawn) | 22 | – | – | – | – | 9400 | 2300
7 | CNCc1ccc(-n2cc3cccc(C(N)=O)c3n2)cc1C(F)(F)F | 5 | – | – | – | – | > 20000 | 6200
8 | CNCc1ccc(-n2cc3cccc(C(N)=O)c3n2)cc1OC | 4 | – | – | – | – | 11000 | 1900
9 | CNCc1ccc(-n2cc3ccc(F)c(C(N)=O)c3n2)cc1 | 20 | – | – | – | – | > 10000 | 1600
10 | NC(=O)c1cccc2cn(-c3ccc(C(=O)NCCN4CCOCC4)cc3)nc12 | 54 | – | – | – | – | > 20000 | 7600
11 | CN(Cc1ccc(-n2cc3cccc(C(N)=O)c3n2)cc1)C(=O)C1CNC1 | 18 | – | – | – | – | 20000 | > 20000
12 | CN1CCC(C(=O)Nc2ccc(-n3cc4cccc(C(N)=O)c4n3)cc2)CC1 | 10 | – | – | – | – | 8400 | 3600
13 | CN1CCC[C@@H](C(=O)Nc2ccc(-n3cc4cc(F)cc(C(N)=O)c4n3)cc2F)C1 | 12 | – | – | – | – | 1800 | 440
14 | NC(=O)c1cccc2cn(-c3ccc(C(=O)NCCN4CCCCC4)cc3)nc12 | 38 | – | – | – | – | 6400 | 3000
15 | NC(=O)c1cccc2cn(-c3ccc(C(=O)NCc4ccncc4)cc3)nc12 | 10 | – | – | – | – | 8700 | 3900
16 | NC(=O)c1cccc2cn(-c3ccc(C(=O)Nc4ccncc4)cc3)nc12 | 30 | – | – | – | – | > 50000 | 7300
17 | NC(=O)c1cccc2cn(-c3ccc(C(=O)N4CCCNCC4)cc3)nc12 | 22 | – | – | – | – | > 20000 | > 10000
18 | NC(=O)c1cccc2cn(-c3cccc(C(=O)N4CCCNCC4)c3)nc12 | 40 | – | – | – | – | > 20000 | > 20000
19 | CN1CCC[C@H]1C(=O)Nc1ccc(-n2cc3cccc(C(N)=O)c3n2)cc1 | 17 | – | – | – | – | 5000 | 1200
20 | CNCc1ccc(-n2nc3c(C(N)=O)cccc3c2Cl)cc1 | 20 | – | – | – | – | 11000 | 5900
21 | CNCc1ccc(-n2cc3c(Cl)ccc(C(N)=O)c3n2)cc1 | 180 | – | – | – | – | 4300 | 5200
22 | CNCc1ccc(-n2cc3c(O)ccc(C(N)=O)c3n2)cc1 | 540 | – | – | – | – | > 20000 | > 20000
23 | CNCc1ccc(-n2cc3cccc(C(N)=O)c3n2)cc1F | 4 | – | – | – | – | 3800 | 200
24 | CNCc1ccc(-n2cc3cccc(C(N)=O)c3n2)cc1O | 12 | – | – | – | – | > 10000 | 3400
25 | CN1CCC[C@@H](C(=O)Nc2ccc(-n3cc4cccc(C(N)=O)c4n3)cc2)C1 | 30 | 23 | 47 | – | – | 4300 | 820
26 | NC(=O)c1cccc2cn(-c3ccc(NC(=O)CN4CCCC4)cc3)nc12 | 10 | – | – | – | – | 2800 | 930
27 | CN1CCCC(C(=O)N(C)Cc2ccc(-n3cc4cccc(C(N)=O)c4n3)cc2)C1 (stereo not drawn) | 25 | – | – | – | – | > 20000 | 8600
28 | CNCc1ccc(-n2cc3cc(F)cc(C(N)=O)c3n2)cc1 | 1.4 | – | – | – | – | 1800 | 94
29 | NC(=O)c1cccc2cn(-c3ccc(NC(=O)C4CNC4)cc3)nc12 | 10 | 13 | – | 1 | 1% and 3% | > 20000 | 920
30 | CN1CCCCC1C(=O)Nc1ccc(-n2cc3cccc(C(N)=O)c3n2)cc1 (racemic) | 46 | – | – | – | – | 6700 | 2600

More lines, main results first:

Row | IC50 [3] [nM] | clearance [4] [mL/min/kg] | bioavailability [5] [%] | microsomal CLint [6] [µL/min/mg] | F [7] | SMILES | CC50 [1] [nM] | IC50 [2] [nM]
31 | 10 | – | – | – | – | CN(C)CCNC(=O)c1ccc(-n2cc3cccc(C(N)=O)c3n2)cc1 | 8900 | 5400
32 | 65 | – | – | – | – | NC(=O)c1cccc2cn(-c3ccc(CNC(=O)C4CNC4)cc3)nc12 | > 20000 | > 20000
33 | 8 | – | – | – | – | CNCc1ccc(-n2cc3c(F)ccc(C(N)=O)c3n2)cc1 | 6300 | 2500
34 | 25 | – | – | – | – | CNCc1ccc(-n2cc3c(F)c(F)cc(C(N)=O)c3n2)cc1 | > 5000 | 2600
35 | 25 | – | – | – | – | NC(=O)c1cccc2cn(-c3ccccc3)nc12 | – | –
36 | 6 | – | – | – | – | CNCc1ccc(-n2cc3cc(F)cc(C(N)=O)c3n2)c(F)c1 | 4200 | 230
37 | 5 | 13 | 3 | – | – | NC(=O)c1cc(F)cc2cn(-c3ccc(NC(=O)C4CNC4)cc3)nc12 | 5900 | 310
38 | 6 | – | – | – | – | CN1CC(C(=O)Nc2ccc(-n3cc4cc(F)cc(C(N)=O)c4n3)cc2)C1 | 2600 | 720
39 | 5 | – | – | – | – | CNCc1ccc(-n2cc3cc(Cl)cc(C(N)=O)c3n2)cc1 | 1000 | 260
40 | 6 | – | – | – | – | CN1CC(C(=O)Nc2ccc(-n3cc4cc(F)cc(C(N)=O)c4n3)cc2F)C1 | 1600 | 480
41 | 20 | 42 | – | – | – | CN1CCC[C@H](C(=O)Nc2ccc(-n3cc4cccc(C(N)=O)c4n3)cc2)C1 | 6000 | 1300
42 | 15 | – | – | – | – | CN(C)CC(=O)Nc1ccc(-n2cc3cccc(C(N)=O)c3n2)cc1 | 5000 | 1500
43 | 2 | – | – | – | – | CNCc1ccc(-n2cc3cc(F)cc(C(N)=O)c3n2)cc1F | 1500 | 26
44 | 5 | – | – | – | – | CNCc1ccc(-n2cc3cccc(C(N)=O)c3n2)cc1 | 5600 | 500
45 | > 1000 | – | – | – | – | CNCc1ccc(-n2cc3c(OC)ccc(C(N)=O)c3n2)cc1 | 5500 | 3400
